The values that follow come from US12649735B2 (HAIHE BIOPHARMA CO., LTD., priority 2019, dated 2026).

The test system of one experiment is BRD4-BD2. The settings on record: cited from earlier work.
In the next experiment the test system is acute leukemia tumors. The settings on record: mice, administered orally, 60 mg/kg per day; cited from earlier work.
The target of experiment [1] is T1, bromodomain protein BRD4 BD1 (Homo sapiens, UniProt O60885).
T1 construct: The proteins BRD4 BD1/BD2 used in the experiment were purchased from Active Motif Company (Cat. No. 31380/31446); purchased Active Motif 31380
As to the kind of experiment: HTRF in vitro assay, inhibitory activity against BRD4 BD1. The format is binding. As to conditions: BRD4(1) 30 nM in final system. As for the experimental part:
In this example, the half inhibitory activity (IC50) of the compounds of the present invention against the bromodomain protein BRD4 BD1 was determined.
(§1) The inhibitory activity of the compound against BRD4 BD1 was determined by using Homogeneous Time-Resolved Fluorescence (HTRF).
(§2) The proteins BRD4 BD1/BD2 used in the experiment were purchased from Active Motif Company (Cat. No. 31380/31446); Streptavidin XL-665 (#610SAXLA) and EPIgeneous Binding Domain Kit A (#62BDAPEG) were purchased from Cisbio Bioassays Company, [Lys(5,8,12,16)Ac]H4(1-21)-biotin (#64989), and [Lys(5,8,12,16)Ac]H4(1-25) were products of AnaSpec company; OTX015 and ABBV-075 were purchased from SelleckChem. 384 Well ProxiPlate (#6008280) was purchased from PerkinElmer. The multifunctional microplate reader used for the experimental was a product of PerkinElmer, model: Envision 2104. The experimental water was Millipore-Q pure water.
(§3) 10 mM of stock solution of compound in DMSO was diluted to 1 mM with DMSO and stored, and then diluted 10 times with Binding Domain dilution buffer (purchased from Cisbio Bioassays) for use (the concentration of DMSO in the final system was […]), 1:5 gradient dilution, a total of 5 concentrations.
(§4) 4. Test Method: 1 Batch, 2 Duplicate Wells
(§5) • 1) 5 μL of test compound was transferred to 45 μL of Binding Domain dilution buffer. • 2) 2 μL of 10× compound (4 μL Binding Domain dilution buffer: positive control; 6 μL enzyme buffer (purchased from Cisbio Bioassays): negative control) was transferred to the reaction plate. • 3) 4 μL of 5×BRD4(1) or BRD4(2) (30 nM in final system) was added to the reaction plate. • 4) 4 μL of 5×[Lys(5,8,12,16)Ac]H4(1-21)-biotin was added to the reaction plate, and the plate was covered with a film, and incubated at 37° C. for 30 min. • 5) A detection mixture of SA-XL665 (2×) and anti-H3K9me0-Eu(K) (2×) was prepared in detection buffer (purchased from Cisbio Bioassays). • 6) 10 μL of detection mixture (2×) was added to each well, and incubated for 3 h at room temperature, and the mp value was read using a multi-plate reader Envision. The parameters were set as follows.

Experiment [2] addresses T2, bromodomain protein BRD4 BD2 (Homo sapiens, UniProt O60885).
T2 construct: The proteins BRD4 BD1/BD2 used in the experiment were purchased from Active Motif Company (Cat. No. 31380/31446); purchased Active Motif 31446
Nature of the experiment: HTRF in vitro assay, inhibitory activity against BRD4 BD2. The format is binding. The settings on record: BRD4(2) 30 nM in final system. The procedure:
as §1, §2, §3, §4, §5

Regarding `CCNC(=O)c1cc2c(-c3cc(C(C)(C)O)ccc3Oc3c(C)cc(F)cc3C)cn(C)c(=O)c2[nH]1` [Abbv744], the “selectivity (BD2/BD1)” value in the experiment on BRD4-BD2 was greater than 100 times.
As for `Cc1noc2c1-c1ccccc1C(c1ccc(Cl)cc1)=N[C@H]2CC(N)=O` [CPI-0610], the “inhibits acute leukemia tumors” value in the experiment with acute leukemia tumors was 41%.
The term IC50 denotes the midpoint of a concentration-inhibition curve. On to `CC(c1ccccc1)c1cn(C)c(=O)c2c(NC(=O)OC(C)(C)C)c(-c3cnn(C)c3)oc12` (centres unmarked) [Compound A61, tert-butyl (5-methyl-2-(1-methyl-1H-pyrazol-4-yl)-4-oxo-7-(1-phenethyl)-4,5-dihydrofuro[3,2-c]pyridin-3-yl carbamate], for which the IC50 in experiment [1] is 100 to 1000 nM; in experiment [2], no more than 10 nM.
For `CC(c1ccc(F)cc1)c1cn(C)c(=O)c2[nH]c(-c3cnn(C(CO)CN4CCN(C)CC4)c3)cc12` (centres unmarked) [Compound A62, 4-(1-(4-fluorophenyl)ethyl)-2-(1-(1-hydroxy-3-(4-methylpiperazin-1-yl)propan-2-yl)-1H-pyrazol-4-yl)-6-methyl-1,6-dihydro-7H-pyrrolo[2,3-c]pyridin-7-one], in that order: 100 to 1000 nM and no more than 10 nM.
For `CC(c1ccc(N2CCN(C)CC2)cc1)c1cn(C)c(=O)c2[nH]c(-c3cnn(C4COC4)c3)cc12` (centres unmarked) [Compound A63, 6-methyl-4-(1-(4-(4-methylpiperazin-1-yl)phenyl)ethyl)-2-(1-(oxetan-3-yl)-1H-pyrazol-4-yl)-1,6-dihydro-7H-pyrrolo[2,3-c]pyridin-7-one], in that order: 100 to 1000 nM and 10 to 100 nM.
Consider `CC(c1ccc(Cl)cc1)c1cn(C)c(=O)c2[nH]c(C(=O)Nc3cnn(C)c3)cc12` (centres unmarked) [Compound A64, 4-(1-(4-chlorophenyl)ethyl)-6-methyl-N-(1-methyl-1H-pyrazol-4-yl)-7-oxo-6,7-dihydro-1H-pyrrolo[2,3-c]pyridin-2-carboxamide], for which the IC50 in experiment [1] lay in the range of 100 to 1000 nM; in experiment [2], 10 to 100 nM.
As to `Cn1cc(C(CO)c2ccccc2)c2cc(-c3cnn(C4COC4)c3)[nH]c2c1=O` (centres unmarked) [Compound A67, 4-(2-hydroxy-1-phenethyl)-6-methyl-2-(1-(oxetan-3-yl)-1H-pyrazol-4-yl)-1,6-dihydro-7H-pyrrolo[2,3-c]pyridin-7-one], the figures for the IC50 in experiment [1] and in experiment [2] were 100 to 1000 nM and 10 to 100 nM, respectively.
For `Cn1cc(Oc2ccccc2)c2cc(-c3cnn(C4COC4)c3)[nH]c2c1=O` [Compound A68, 6-methyl-2-(1-(oxetan-3-yl)-1H-pyrazol-4-yl)-4-phenoxy-1,6-dihydro-7H-pyrrolo[2,3-c]pyridin-7-one], in that order: 100 to 1000 nM and 10 to 100 nM.
`Cc1ccc(C(C)(C)c2cn(C)c(=O)c3[nH]c(-c4cnn(C5COC5)c4)cc23)cc1` [Compound A69, 6-methyl-2-(1-(oxetan-3-yl)-1H-pyrazol-4-yl)-4-(2-(p-tolyl)propan-2-yl)-1,6-dihydro-7H-pyrrolo[2,3-c]pyridin-7-one]: the IC50 was in the range of 100 to 1000 nM in experiment [1] and 10 to 100 nM in experiment [2].
With `Cn1cc(C(c2ccccc2)c2ccccc2)c2cc(-c3cnn(C4COC4)c3)[nH]c2c1=O` [Compound A71], the results for the IC50 in experiment [1] and in experiment [2] were 100 to 1000 nM and 10 to 100 nM, respectively.
With `CC(c1ccc(O)cc1)c1cn(C)c(=O)c2[nH]c(-c3cnn(C4COC4)c3)cc12` (centres unmarked) [Compound A72, 4-(1-(4-hydroxyphenyl)ethyl)-6-methyl-2-(1-(oxetan-3-yl)-1H-pyrazol-4-yl)-1,6-dihydro-7H-pyrrolo[2,3-c]pyridin-7-one], the values for the IC50 in experiment [1] and in experiment [2] were 100 to 1000 nM and 10 to 100 nM, respectively.
For `COc1ccc(C(C)c2cn(C)c(=O)c3[nH]c(-c4cnn(C5COC5)c4)cc23)cc1` (centres unmarked) [Compound A73, 4-(1-(4-methoxyphenyl)ethyl)-6-methyl-2-(1-(oxetan-3-yl)-1H-pyrazol-4-yl)-1,6-dihydro-7H-pyrrolo[2,3-c]pyridin-7-one], in that order: 100 to 1000 nM and no more than 10 nM.
For `CC(c1cccc(F)c1F)c1cn(C)c(=O)c2[nH]c(-c3cnn(C4COC4)c3)cc12` (centres unmarked) [Compound A74, 4-(1-(2,3-difluorophenyl)ethyl)-6-methyl-2-(1-(oxetan-3-yl)-1H-pyrazol-4-yl)-1,6-dihydro-7H-pyrrolo[2,3-c]pyridin-7-one], in that order: 100 to 1000 nM and no more than 10 nM.
For `CC(c1cccc(Cl)c1F)c1cn(C)c(=O)c2[nH]c(-c3cnn(C4COC4)c3)cc12` (centres unmarked) [Compound A75, 4-(1-(3-chloro-2-fluorophenyl)ethyl)-6-methyl-2-(1-(oxetan-3-yl)-1H-pyrazol-4-yl)-1,6-dihydro-7H-pyrrolo[2,3-c]pyridin-7-one], the figures for the half-inhibitory concentration (IC50) in experiment [1] and in experiment [2] were 100 to 1000 nM and no more than 10 nM, respectively.
